Assay results taken from ChEMBL document CHEMBL1134145, “Carbohydrate recognition of gramicidin S analogues in aqueous medium” (Bioorg Med Chem Lett, 2001).

Columns and labels:
[1] = Dissociation constant of compound with Lactulose was determined; type: physicochemical
[2] = Dissociation constant of compound with Fructose was determined; type: physicochemical

SMILES | Kd [1] [µM] | Kd [2] [µM]
NCCC[C@@H]1NC(=O)[C@H](CCC(N)=O)NC(=O)[C@@H]2CCCN2C(=O)[C@@H](Cc2ccccc2)NC(=O)[C@H](Cc2c[nH]c3ccccc23)NC(=O)[C@H](CCCN)NC(=O)[C@H](CCC(N)=O)NC(=O)[C@@H]2CCCN2C(=O)[C@@H](Cc2ccccc2)NC(=O)[C@H](Cc2c[nH]c3ccccc23)NC1=O | 30 | 
NCCC[C@@H]1NC(=O)[C@H](CC(N)=O)NC(=O)[C@@H]2CCCN2C(=O)[C@@H](Cc2ccccc2)NC(=O)[C@H](Cc2c[nH]c3ccccc23)NC(=O)[C@H](CCCN)NC(=O)[C@H](CC(N)=O)NC(=O)[C@@H]2CCCN2C(=O)[C@@H](Cc2ccccc2)NC(=O)[C@H](Cc2c[nH]c3ccccc23)NC1=O | 200 | 1500
NCCC[C@@H]1NC(=O)[C@H](CC(=O)O)NC(=O)[C@@H]2CCCN2C(=O)[C@@H](Cc2ccccc2)NC(=O)[C@H](Cc2c[nH]c3ccccc23)NC(=O)[C@H](CCCN)NC(=O)[C@H](CC(N)=O)NC(=O)[C@@H]2CCCN2C(=O)[C@@H](Cc2ccccc2)NC(=O)[C@H](Cc2c[nH]c3ccccc23)NC1=O | 180 | 4700
NCCC[C@@H]1NC(=O)[C@H](CC(=O)O)NC(=O)[C@@H]2CCCN2C(=O)[C@@H](Cc2ccccc2)NC(=O)[C@H](Cc2c[nH]c3ccccc23)NC(=O)[C@H](CCCN)NC(=O)[C@H](CC(=O)O)NC(=O)[C@@H]2CCCN2C(=O)[C@@H](Cc2ccccc2)NC(=O)[C@H](Cc2c[nH]c3ccccc23)NC1=O |  | 1500
